# Where two headings read alike, the source gives them in different places. Marks after values point to notes of the source that are not given here.
# Legend:
# [1] = for Solubility: 23° C., stirred 2 days
# Protocol: Table 1. It will be understood that concentrations of adrenergic agonists other than 0.5% may be used, so long as they have therapeutic activity. Likewise, the temperature may be varied, for example, solubility curves may be performed at 37° C. (98.6° F.). The formulation vehicle was prepared by first dissolving polyvinyl alcohol (PVA) in water. The PVA was added to approximately ⅓ of the required total amount of purified water with constant stirring. The slurry was stirred for 20-30 minutes and then heated to 80-95° C. with constant stirring. The mixture was removed from the heat source within 1 hour after having reached the temperature of 80-90° C. and stirred for an additional 10 minutes to ensure homogeneity (Part I). The other ingredients of the Ophthalmic Solution, except for Brimonidine tartrate, were dissolved in a separate container with an additional ⅓ of the required total amount of purified water (Part II). The PVA mixture (Part I) was then quantitatively transferred to Part II using several rinse volumes of purified water. The solution was adjusted to final volume with purified water without pH adjustment.
# Brimonidine tartrate was weighed and transferred to a 10 mL test tube containing 5 mL of the formulation vehicle described above. The pH of each sample was then adjusted to a desired value using dilute sodium hydroxide and/or dilute hydrochloric acid. The samples were placed in a rack on a stir plate and stirred at high speed to achieve uniform mixing for 2 days; a partition was placed between the rack and the stir plate to prevent any heat diffusion from the stir plate to the samples.
# At the end of two days of stirring, the pH value of each sample was measured, and then approximately 1 mL of each sample was placed in a micro centrifuge tube (polypropylene) and centrifuged at 4,000 rpm for 10 minutes. The supernatant was filtered through a 1 μm filter unit (Whatman, 13 mm, PTFE). The first 3-4 drops of the filtrate were discarded; the rest of the filtrate was received and diluted quantitatively with HPLC mobile phase. The dilute sample was then injected directly on the HPLC column (Dupont Zorbax, 250 mm×4.6 mm, 5 μm) for Brimonidine tartrate assay in order to quantify the amount of Brimonidine tartrate. A control of 10.05% Brimonidine tartrate was prepared in the formulation vehicle at pH 6.3-6.5 and assayed before (untreated) and after (treated) centrifugation and filtration. This was done to evaluate the potential loss of Brimonidine tartrate in these two steps of the sample preparation. To ensure reproducibility, the study was repeated on consecutive days.
# [2] = for Solubility of Brimonidine tartrate: 0% CMC
# Protocol: The pH-solubility profiles of Brimonidine tartrate in compositions (solutions) containing SECs and oxy-chloro components were determined. Particularly, the effects of sodium carboxymethylcellulose (CMC), an SEC, on the solubility of Brimonidine tartrate at various pH conditions were determined. The various concentrations of CMC tested with Brimonidine tartrate were 0%, 0.056%, 0.17%, 0.5%, 1.5% (w/v), Table III.
# The samples tested also contained isotonic components, buffer components, and stabilized chlorine dioxide (Purite™), Table III. Sodium carboxymethyl-cellulose, sodium chloride, potassium chloride, calcium chloride dihydrate, and magnesium chloride hexahydrate were USP grade. Boric acid and sodium borate decahydrate were NF grade.
# Each sample (1 through 5) was subjected to a range of pH's from about 7 to about 10. The vials containing the sample solutions were placed on a laboratory rotator and left for equilibration for fifteen days at room temperature (˜21° C.). The sample solutions were filtered using a 25 mm diameter polysulfone cellulose acetate syringe type filter with 0.45 μm pore size. The filtered solutions were assayed for Brimonidine.
# Conventional HPLC and detection techniques were used to detect and determine the concentrations of soluble Brimonidine tartrate. […] The solubility is plotted against pH for each CMC concentration. The experimental data points were fitted to a modified Henderson-Hasselbalch equation using a nonlinear least squares routine (Deltagraph version 4.0 DeltaPoint, Inc.), FIG. 1.
# [3] = composition including chlorite, equilibrated ten days
# Protocol: Brimonidine tartrate is added to a test tube containing a composition including chlorite. The test tube was allowed to equilibrate for ten days. Samples obtained from the test tube is analyzed.
substance,measurement,setting,value
tartrate of 5-bromo-6-(2-imidozolin-2-ylamino) quinoxaline [Brimonidine tartrate],Solubility,"[1]; Study 1, pH 5.55, Ophthalmic Solution vehicle, theoretical concentration based on sample weight, solution clear",≧164.4^b % w/v
same,Solubility,"[1]; Study 1, pH 5.92, Ophthalmic Solution vehicle",132.6 % w/v
same,Solubility,"[1]; Study 1, pH 6.14, Ophthalmic Solution vehicle",30.4 % w/v
same,Solubility,"[1]; Study 1, pH 6.57, Ophthalmic Solution vehicle",7.55 % w/v
same,Solubility,"[1]; Study 1, pH 7.00, Ophthalmic Solution vehicle",2.69 % w/v
same,Solubility,"[1]; Study 1, pH 7.45, Ophthalmic Solution vehicle",1.17 % w/v
same,Solubility,"[1]; Study 1, pH 7.83, Ophthalmic Solution vehicle",0.62 % w/v
same,Solubility,"[1]; Study 2, pH 5.50, Ophthalmic Solution vehicle, theoretical concentration based on sample weight, solution clear",≧200.6^b % w/v
same,Solubility,"[1]; Study 2, pH 5.92, Ophthalmic Solution vehicle",160.8 % w/v
same,Solubility,"[1]; Study 2, pH 6.06, Ophthalmic Solution vehicle",50.1 % w/v
same,Solubility,"[1]; Study 2, pH 6.90, Ophthalmic Solution vehicle",3.19 % w/v
same,Solubility,"[1]; Study 2, pH 7.40, Ophthalmic Solution vehicle",1.19 % w/v
same,Solubility,"[1]; Study 2, pH 7.77, Ophthalmic Solution vehicle",0.63 % w/v
same,Solubility,"[1]; Study 2, pH 7.86, Ophthalmic Solution vehicle",0.58 % w/v
same,Solubility,"[1]; Study 2, pH 7.88, Ophthalmic Solution vehicle",0.54 % w/v
same,pH dependence of solubility,"[1]; formulation vehicles, pH range of 5-8",highly pH-dependent
same,Solubility of Brimonidine tartrate,"[2]; pH 6.68, equilibrated fifteen days at room temperature (~21° C.)",1.4256%
same,Solubility of Brimonidine tartrate,"[2]; pH 7.11, equilibrated fifteen days at room temperature (~21° C.)",0.2064%
same,Solubility of Brimonidine tartrate,"[2]; pH 7.68, equilibrated fifteen days at room temperature (~21° C.)",0.0786%
same,Solubility of Brimonidine tartrate,"[2]; pH 8.50, equilibrated fifteen days at room temperature (~21° C.)",0.0286%
same,Solubility of Brimonidine tartrate,"[2]; pH 10.09, equilibrated fifteen days at room temperature (~21° C.)",0.0218%
same,soluble Brimonidine tartrate (FIG. 1),"[2]; pH 7.5, 0% CMC",1000 ppm
same,soluble Brimonidine tartrate (FIG. 1),"[2]; pH 7.5, 0.056% CMC",1300 ppm
same,soluble Brimonidine tartrate (FIG. 1),"[2]; pH 7.5, 0.17% CMC",1300 ppm
same,soluble Brimonidine tartrate (FIG. 1),"[2]; pH 7.5, 0.5% CMC",1600 ppm
same,soluble Brimonidine tartrate (FIG. 1),"[2]; pH 7.5, 1.5% CMC",about 1400 ppm
same,formation of dimers,[3],a portion of the Brimonidine tartrate monomer units conjugated to form dimers

# From US6627210B2, “Compositions containing α-2-adrenergic agonist components” (Allergan, Inc., priority 2000, dated 2003)
